Measurements: the OPERA property sets (Mansouri et al. 2018)

Conditions: for log10 BCF / log10 biotransformation half-life (days): fish

Row | SMILES | melting point [°C] | boiling point [°C] | other results
1 | N=C(Nc1ccccc1)Nc1ccccc1 | 150 | – | ready biodegradability: not readily biodegradable; log10 BCF: 1.3
2 | COc1ccc(Nc2ccc(N)cc2)cc1 | 102 | – | –
3 | C=C(C)C(=O)Nc1ccc(Cl)c(Cl)c1 | 128 | – | –
4 | CC(=O)c1ccc(O[C@@H]2O[C@H](CO)[C@@H](O)[C@H](O)[C@H]2O)cc1 | 196 | – | –
5 | CCCCCCCCC(=O)OC | – | 214 | –
6 | c1ccc(-c2cc(-c3ccccc3)cc(-c3ccccc3)c2)cc1 | 176 | 462 | –
7 | CCOC(=O)C1(c2cccc(O)c2)CCN(C)CC1 | 110 | – | –
8 | Fc1cccc(N=C=S)c1 | – | 227 | –
9 | C=CCOC(=O)/C=C\C(=O)OCC=C | – | – | log10 vapour pressure (mmHg): -2.17
10 | Cc1ccccc1NCCO | – | 286 | –
11 | COc1ccc(C=O)cc1OC | 43 | 281 | ready biodegradability: readily biodegradable
12 | OCC(O)CCl (centres undefined) | – | – | log10 vapour pressure (mmHg): -0.699; ready biodegradability: readily biodegradable
13 | CC(C=O)Cc1ccc(C(C)(C)C)cc1 (centres undefined) | – | – | ready biodegradability: not readily biodegradable
14 | ClC1=C(Cl)C2(Cl)C3C(Cl)OC(Cl)C3C1(Cl)C2(Cl)Cl (centres undefined) | 121 | – | log10 vapour pressure (mmHg): -5.53
15 | Fc1cc(F)c(F)c(-c2c(F)c(F)cc(F)c2F)c1F | 85 | – | –
16 | CCI | -111 | 72.5 | log10 Koa: 2.59; log10 vapour pressure (mmHg): 2.13
17 | O=c1[nH]c(=O)n([C@H]2C[C@H](O)[C@@H](CO)O2)cc1C(F)(F)F | 188 | – | –
18 | CCCCC(C)C(C)C (centres undefined) | -116 | 140 | log10 biotransformation half-life (days): 1.28
19 | Cc1ccnc(-c2cc(C)ccn2)c1 | 175 | – | –
20 | ClC(Cl)(Br)C(Cl)(Cl)Br | 202 | – | –
21 | CCOCCOCCOCC | -45 | 188 | log10 vapour pressure (mmHg): -0.284
22 | CC(C)CCCC(=O)O | – | 216 | –
23 | Cc1ccc2nc(-c3ccc(N)cc3)sc2c1 | 195 | 434 | –
24 | CCOS(=O)(=O)C(F)(F)F | – | 115 | –
25 | ClC1=C(Cl)C2(Cl)[C@@H]3C[C@@H](Cl)[C@@H](Cl)[C@@H]3C1(Cl)C2(Cl)Cl (mixture of isomers) | – | – | log10 Koa: 8.89

Row | SMILES | melting point [°C] | boiling point [°C] | other results
26 | O=C(O)c1ccc(I)cc1 | 270 | – | –
27 | CCCOC(=O)OCCC | – | 168 | –
28 | N#Cc1nn(-c2c(Cl)cc(C(F)(F)F)cc2Cl)c(N)c1S(=O)(=O)C(F)(F)F | – | – | log10 biotransformation half-life (days): 1.05
29 | ClCCCOc1ccccc1 | 12 | 250 | –
30 | OC[C@H]1O[C@H](OC[C@H]2O[C@H](O)[C@H](O)[C@@H](O)[C@@H]2O)[C@H](O)[C@@H](O)[C@H]1O | 86 | – | –
31 | Oc1ccccc1I | 43 | – | ready biodegradability: not readily biodegradable
32 | CCc1cc(C(N)=S)ccn1 | 163 | – | –
33 | CCOc1ccccc1Cl | – | 210 | –
34 | NC(=O)C=Cc1ccccc1 | 149 | – | –
35 | COC1=C(OC)C(=O)C(C)=CC1=O | 59.5 | – | –
36 | CCCCC(CC)CCl (centres undefined) | – | 172 | log10 vapour pressure (mmHg): 0.0792
37 | Brc1cc(Br)c(-c2ccccc2)c(Br)c1 | – | – | log10 BCF: 3.87; log10 biotransformation half-life (days): 1.25
38 | CCCCCCCCCCCCCCCCS | 19 | 334 | log10 vapour pressure (mmHg): -4.99
39 | NC(=O)C(CCN1CCCCCC1)(c1ccccc1)c1ccccc1 | 142 | – | –
40 | CCCCCSC | -94 | 145 | –
41 | CCC1(c2ccccc2)NC(=O)N(C)C1=O (centres undefined) | 136 | – | –
42 | CC(=O)Nc1ccc(S(N)(=O)=O)cc1 | 220 | – | –
43 | O=C1c2ccccc2C(=O)C1(CN1CCOCC1)c1ccccc1 | 88 | – | –
44 | COc1cc2nc(N3CCN(C(=O)c4ccco4)CC3)nc(N)c2cc1OC | 279 | – | –
45 | O=[N+]([O-])c1ccc(-c2ccc([N+](=O)[O-])cc2)cc1 | – | – | log10 vapour pressure (mmHg): -7.56
46 | CC(=O)CC(c1ccc([N+](=O)[O-])cc1)c1c(O)c2ccccc2oc1=O (centres undefined) | 197 | – | –
47 | CC(C)c1cccc(C(C)C)c1N | -45 | 257 | –
48 | C=C1C[C@H]2[C@@H]3CCC4=CC(=O)C=C[C@]4(C)[C@H]3[C@@H](O)C[C@]2(C)[C@@]1(O)C(=O)CO | 234 | – | –
49 | OB(O)c1ccc(Cl)cc1 | 286 | – | –
50 | C1OCOCO1 | 60.2 | 114 | log10 vapour pressure (mmHg): 1.24

Row | SMILES | melting point [°C] | boiling point [°C] | other results
51 | CCOC(=O)C(Cl)Cl | – | 155 | log10 vapour pressure (mmHg): 0.456
52 | O=C(O)C1CCCN1 (racemic) | 205 | – | –
53 | C[C@H](N[C@@H](C)c1ccccc1)c1ccccc1 | – | 296 | –
54 | COC(=O)[C@@H]1C2CCC(C[C@@H]1OC(=O)c1ccccc1)N2C (some centres undefined) | 98 | – | log10 vapour pressure (mmHg): -6.72
55 | C#CC(C)(C)NC(=O)c1ccc(C(C)C)cc1 | – | – | log10 Koc (L/kg): 2.17
56 | CCCCCCCCCCCCCC(=O)N(CCO)CCO | – | – | ready biodegradability: readily biodegradable
57 | C=CCc1cc(OC)c2c(c1)OCO2 | – | 276 | –
58 | CCCN(CC1CC1)c1c([N+](=O)[O-])cc(C(F)(F)F)cc1[N+](=O)[O-] | 32.3 | – | log10 Koc (L/kg): 4.01; log10 vapour pressure (mmHg): -4.2
59 | Cn1cc[nH]c1=S | 146 | 280 | –
60 | CCN | – | 16.6 | log10 Henry constant (atm·m³/mol): -4.91; log10 vapour pressure (mmHg): 3.02; ready biodegradability: readily biodegradable
61 | N#CC#CC#N | 20.5 | – | –
62 | Clc1cc2oc3cc(Cl)c(Cl)c(Cl)c3c2c(Cl)c1Cl | – | – | log10 Koa: 10.9
63 | C[SiH](O[SiH](C)O[Si](C)(C)C)O[Si](C)(C)C (centres undefined) | – | 170 | –
64 | Cc1ccc(C)c(N)c1 | 15.5 | 214 | log10 vapour pressure (mmHg): -0.824; ready biodegradability: not readily biodegradable; log10 BCF: 0.58; log10 biotransformation half-life (days): -0.99
65 | CC1CCCC(C)C1C (centres undefined) | – | 142 | –
66 | O=C1OC(=O)c2cccc3cccc1c23 | 270 | – | –
67 | CCCCCCCCC=CCCCCCCCC(=O)OCCCC | – | – | ready biodegradability: readily biodegradable
68 | FCCCBr | – | 101 | –
69 | CCCCCON=O | – | 104 | log10 vapour pressure (mmHg): 0.598
70 | Clc1cccc(-c2c(Cl)c(Cl)c(Cl)c(Cl)c2Cl)c1Cl | – | – | log10 Henry constant (atm·m³/mol): -4.85
71 | Nc1cccc(S(=O)(=O)O)c1 | – | – | ready biodegradability: not readily biodegradable
72 | CC(C)=CCC1=C(O)C(=O)c2ccccc2C1=O | 140 | – | –
73 | CC(=O)OCOc1ccccc1C(N)=O | 92.5 | – | –
74 | CSCCl | – | 105 | –
75 | Cn1ccc2ccccc21 | – | 237 | –

Row | SMILES | melting point [°C] | boiling point [°C] | other results
76 | CCCN(C)C | – | 66 | –
77 | CC(=O)c1cccc(C(C)=O)c1 | 32 | – | –
78 | Clc1cccc(Cl)c1-c1ccccc1 | – | – | log10 Henry constant (atm·m³/mol): -3.64
79 | CCCCCCC(C)(C)C | – | 155 | –
80 | Nc1c(I)cc(I)c(C(=O)N(CCC(=O)O)c2ccccc2)c1I | 134 | – | –
81 | NCCCCCCNCCCCCCN | 33 | – | –
82 | CC(CO)(CO)[N+](=O)[O-] | 150 | – | –
83 | O=[N+]([O-])c1cc(Cl)c(O)c(Cl)c1 | 127 | – | –
84 | CCCC1COC(Cn2cncn2)(c2ccc(Cl)cc2Cl)O1 (centres undefined) | – | – | log10 Koc (L/kg): 3.39; log10 vapour pressure (mmHg): -6.38; log10 biotransformation half-life (days): 0.7
85 | CCCCCCCCC=CCCCCCCCCCCCCO | 35 | – | –
86 | CCCCCC(=O)OC | -71 | 150 | log10 Henry constant (atm·m³/mol): -3.44; log10 vapour pressure (mmHg): 0.57
87 | CC1=CC[C@@]23CC1C(C)(C)[C@@H]2CC[C@H]3C | 262 | – | –
88 | CN(C)C(=O)Oc1ccc[n+](C)c1.[Br-] | 153 | – | –
89 | Nc1ccc(Br)cc1 | 66.4 | – | log10 Koc (L/kg): 1.96
90 | N#Cc1ccncc1 | 79 | 214 | log10 Henry constant (atm·m³/mol): -6.03
91 | Oc1c(Br)cc(Br)c(Br)c1Br | 114 | – | –
92 | CC1(C)OC[C@@H]2O[C@@]3(C(=O)O)OC(C)(C)O[C@H]3[C@@H]2O1 | 74 | – | –
93 | O=C(O)c1cccc(C(=O)O)c1C(=O)O | 200 | – | –
94 | CN(C)C(=O)COC(=O)c1ccccc1 | 81.5 | – | –
95 | C1CNC1 | – | 63 | log10 vapour pressure (mmHg): 2.25
96 | CCN(CC)Cc1cccnc1 | – | – | log10 vapour pressure (mmHg): -2.37
97 | Cc1c(F)c(F)cc(F)c1F | – | 126 | –
98 | CCOc1ccc(NC(=O)OC(C)C)cc1OCC | 100 | – | log10 vapour pressure (mmHg): -4.2
99 | C[C@]12CC[C@H]3[C@@H](CCC4=CC(=O)CC[C@@H]43)[C@@H]1CC[C@@H]2OC(=O)CCc1ccccc1 | 95.5 | – | –
100 | O=[N+]([O-])c1ccccc1CO | 74 | 270 | –

Row | SMILES | melting point [°C] | boiling point [°C] | other results
101 | CC(C)CCC[C@@H](C)[C@H]1CC[C@H]2[C@@H]3CC=C4C=CCC[C@]4(C)[C@H]3CC[C@]12C | 80 | – | –
102 | CNC(=O)Oc1ccc2c(c1)[C@]1(C)CCN(C)OC1N2C (some centres undefined) | 129 | – | –
103 | CC(C)Sc1ccccc1 | – | 208 | –
104 | C=CSC=C | 20 | 84 | –
105 | COC1=C(OC)C(=O)C(C)=C(C)C1=O | 62.5 | – | –
106 | O=C(O)C(Cl)Cl | 13.5 | 194 | log10 Henry constant (atm·m³/mol): -8.08; log10 vapour pressure (mmHg): -0.748; ready biodegradability: readily biodegradable
107 | Cc1ccc2nc(C)cc(C)c2c1 | 68 | 280 | –
108 | O=[N+]([O-])OCC(CCl)O[N+](=O)[O-] (centres undefined) | – | 192 | –
109 | c1ccc2c3c([nH]c2c1)CCCC3 | 120 | 328 | –
110 | CCCCCCCCCCCCCCCCCCOP1OCC2(CO1)COP(OCCCCCCCCCCCCCCCCCC)OC2 (centres undefined) | – | – | ready biodegradability: readily biodegradable
111 | CCCC(C=O)CCC | – | 160 | –
112 | c1ccc(-c2cc3ccccc3[nH]2)cc1 | 190 | – | ready biodegradability: not readily biodegradable
113 | CC1(C)[C@H]2CC[C@]1(C)C(=O)[C@H]2O | 206 | – | –
114 | Cn1nc2ccc(NC(=O)c3ccccc3)cc2n1 | 166 | – | –
115 | Cc1csc(C)c1C | -26.2 | 162 | –
116 | OOC1CCCCC1 | -20 | – | –
117 | CC(CN(C)C)CN1c2ccccc2CCc2ccccc21 (centres undefined) | 45 | – | –
118 | Cc1c(Cl)cc(Cl)c(Cl)c1Cl | 94 | 276 | –
119 | O=S1OCC2C(CO1)C1(Cl)C(Cl)=C(Cl)C2(Cl)C1(Cl)Cl (centres undefined) | 106 | – | log10 Henry constant (atm·m³/mol): -4.62; log10 Koc (L/kg): 4.11; log10 vapour pressure (mmHg): -6.17
120 | CC1(C)[C@H](C(=O)O)CC[C@]1(C)C(=O)O | 189 | – | –
121 | COc1ccc(C(=O)O)c(OC)c1 | 109 | – | –
122 | Cc1cc(C=O)ccc1O | 119 | – | –
123 | NC(=O)CI | 94.5 | – | ready biodegradability: not readily biodegradable
124 | CCCCCCCCCCCCCCCCCCl | – | – | log10 vapour pressure (mmHg): -4.34
125 | CC(Cl)[N+](=O)[O-] (centres undefined) | – | 124 | –
